Reference: the supplement of paper PMC5752671
Counter-ions that a name gives are not always drawn.

Columns and labels:
KASUMI1 [1] = assay: area under dose-response curve (cell viability) (AUC (arbitrary, % viability x log concentration)); higher = less sensitive (more viable); conditions: 4 days
Outline: (§1)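 The value given is the area under a fitted sigmoid dose-response curve. That sigmoid had four parameters and was fitted to duplicate-averaged data from fourteen leukemia cell lines grown on extracellular-matrix-coated 384-well plates. One day after plating, drugs were robotically dosed in duplicate at eight concentrations spanning 4–5 logs between 10^–12 and 10^–4 M, chosen per drug, and viability was read with CellTiter-Glo 4 days later.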

EOL-1 [2] = assay: as above; conditions: 4 days
Outline: as §1

HL60 [3] = assay: as above; conditions: 4 days
Outline: as §1

OCI-AML2 [4] = assay: as above; conditions: 4 days
Outline: as §1

MV4.11 = assay: IC50 (cell viability) (log10 M); conditions: 4 days
Outline: (§2)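 Listed values are the IC50, taken from fitted curves. Each is the log10 M concentration at which a four-parameter curve crosses 50% viability; where that point is not reached, the highest concentration tested is given. Fourteen leukemia cell lines on extracellular-matrix-coated 384-well plates were exposed in duplicate to eight drug concentrations within 10^–12–10^–4 M, and viability was read with CellTiter-Glo after 4 days.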

KASUMI1 [5] = assay: IC50 (cell viability) (log10 M); conditions: 4 days
Outline: as §2

U937 = assay: IC50 (cell viability) (log10 M); conditions: 4 days
Outline: as §2

NB4 = assay: IC50 (cell viability) (log10 M); conditions: 4 days
Outline: as §2

MOLM/13 = assay: IC50 (cell viability) (log10 M); conditions: 4 days
Outline: as §2

PL-21 = assay: IC50 (cell viability) (log10 M); conditions: 4 days
Outline: as §2

SKM1 = assay: IC50 (cell viability) (log10 M); conditions: 4 days
Outline: as §2

KG1 = assay: IC50 (cell viability) (log10 M); conditions: 4 days
Outline: as §2

EOL-1 [6] = assay: IC50 (cell viability) (log10 M); conditions: 4 days
Outline: as §2

MOLM/16 = assay: IC50 (cell viability) (log10 M); conditions: 4 days
Outline: as §2

HL60 [7] = assay: IC50 (cell viability) (log10 M); conditions: 4 days
Outline: as §2

OCI-AML2 [8] = assay: IC50 (cell viability) (log10 M); conditions: 4 days
Outline: as §2

OCI-AML3 = assay: IC50 (cell viability) (log10 M); conditions: 4 days
Outline: as §2

THP-1 = assay: IC50 (cell viability) (log10 M); conditions: 4 days
Outline: as §2

AML190 = primary AML patient cells; assay: area under dose-response curve (cell viability), refractory AML patient cells (AUC (arbitrary, % viability x log concentration)); higher = less sensitive (more viable); conditions: 4 days; sample type: primary refractory AML patient cells
Outline: (§3)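 The area under the fitted dose-response curve is given. It comes from CellTiter-Glo viability readings taken after 4 days on primary cells from 12 refractory AML patients on a clinical trial, exposed to drugs at eight concentrations within 10^–12–10^–4 M.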

AML223 = primary AML patient cells; assay: as above; conditions: 4 days; sample type: primary refractory AML patient cells
Outline: as §3

| IC50 (log10 M) (MV4.11) | IC50 (log10 M) (U937) | IC50 (log10 M) (MOLM/13) | IC50 (log10 M) (SKM1) | IC50 (log10 M) (MOLM/16) | IC50 (log10 M) (HL60 [7]) | IC50 (log10 M) (OCI-AML2 [8]) | IC50 (log10 M) (OCI-AML3) | IC50 (log10 M) (THP-1) | Structure (SMILES) | area under dose-response curve (KASUMI1 [1]) | area under dose-response curve (EOL-1 [2]) | area under dose-response curve (HL60 [3]) | area under dose-response curve (OCI-AML2 [4]) | IC50 (log10 M) (KASUMI1 [5]) | IC50 (log10 M) (NB4) | IC50 (log10 M) (PL-21) | IC50 (log10 M) (KG1) | IC50 (log10 M) (EOL-1 [6]) | area under dose-response curve (AML190) | area under dose-response curve (AML223) |
| --- | --- | --- | --- | --- | --- | --- | --- | --- | --- | --- | --- | --- | --- | --- | --- | --- | --- | --- | --- | --- |
| -5.48 | > -5 | -5.18 | > -5 | -5.47 | > -5 | > -5 | > -5 | > -5 | COc1cc2ncnc(Nc3ccc(F)c(Cl)c3)c2cc1OCCCN1CCOCC1 [Gefitinib] | 707 | 570 | 716 | 628 | > -5 | > -5 | -5.34 | -5.01 | -5.5 | 642 | 612 |
| < -8.48 | < -8.48 | < -8.48 | < -8.48 | < -8.48 | < -8.48 | < -8.48 | < -8.48 | < -8.48 | Nc1ccn([C@@H]2O[C@H](CO)[C@@H](O)C2(F)F)c(=O)n1 [Gemcitabine HCl] | 119 | 7.66 | 71.4 | 3.7 | < -8.48 | < -8.48 | < -8.48 | < -8.48 | < -8.48 | 519 | 450 |
| > -5 | > -5 | > -5 | > -5 | > -5 | > -5 | > -5 | > -5 | > -5 | NC(=O)NO [Hydroxyurea] | 672 | 664 | 645 | 583 | > -5 | > -5 | > -5 | > -5 | > -5 | 675 | 624 |
| -5.4 | -5.45 | -5.41 | -5.07 | -5.45 | -5.05 | -5.37 | -5.42 | -5.01 | CS(=O)(=O)CCNCc1ccc(-c2ccc3ncnc(Nc4ccc(OCc5cccc(F)c5)c(Cl)c4)c3c2)o1 [Lapatinib] | 703 | 625 | 747 | 585 | -5.15 | -5.37 | -5.4 | -5.01 | -5.04 | 692 | 659 |
| > -5 | > -5 | > -5 | > -5 | > -5 | > -5 | > -5 | > -5 | > -5 | Nc1cccc2c1CN(C1CCC(=O)NC1=O)C2=O (stereo not given) [Lenalidomide] | 739 | 540 | 745 | 632 | > -5 | > -5 | > -5 | > -5 | > -5 | 659 | 617 |
| -7.92 | < -8.48 | -7.95 | > -5 | < -8.48 | > -5 | -7.51 | -7.95 | < -8.48 | COc1cc(Nc2ncc3c(n2)-c2ccc(Cl)cc2C(c2c(F)cccc2OC)=NC3)ccc1C(=O)O [MLN8237] | 452 | 221 | 467 | 373 | -7.53 | -8.21 | -7.95 | -7.99 | < -8.48 | 576 | 640 |
| -6.86 | -6.6 | -6.82 | -6.84 | -7.03 | -6.6 | -6.78 | -6.64 | -6.13 | Nc1ccccc1NC(=O)c1ccc(CNC(=O)OCc2cccnc2)cc1 [MS-275] | 466 | 359 | 490 | 408 | -6.78 | -6.85 | -6.61 | -6.27 | -7.34 | 461 | 429 |
| -5.28 | -5.07 | -5.11 | > -5 | -5.22 | > -5 | > -5 | -5.01 | > -5 | Cc1ccc(NC(=O)c2ccc(CN3CCN(C)CC3)cc2)cc1Nc1nc(-c2cccnc2)cs1 [Masitinib] | 555 | 361 | 669 | 614 | -5.32 | > -5 | -5.36 | > -5 | -7.33 | 594 | 644 |
| > -5 | > -5 | -5.71 | > -5 | > -5 | > -5 | -5.74 | > -5 | > -5 | S=c1[nH]cnc2nc[nH]c12 [Mercaptopurine] | 693 | 620 | 708 | 571 | > -5 | > -5 | > -5 | > -5 | > -5 | 628 | 347 |
| < -8.48 | > -5 | < -8.48 | > -5 | > -5 | > -5 | < -8.48 | < -8.48 | -7.82 | CN(Cc1cnc2nc(N)nc(N)c2n1)c1ccc(C(=O)N[C@@H](CCC(=O)O)C(=O)O)cc1 [Methotrexate] | 708 | 635 | 751 | 49.3 | > -5 | < -8.48 | > -5 | > -5 | > -5 | 629 | 592 |
| -9.64 | -9.02 | -7.27 | -8.91 | -9.61 | -8.8 | -9.28 | -8.71 | -8.49 | CCNC(=O)c1noc(-c2cc(C(C)C)c(O)cc2O)c1-c1ccc(CN2CCOCC2)cc1 [NVP-AUY-922] | 213 | 149 | 299 | 178 | -9.19 | -8.86 | -8.84 | -8.55 | -9.55 | 340 | 396 |
| > -5 | > -5 | > -5 | > -5 | > -5 | > -5 | > -5 | > -5 | > -5 | Cc1c(C(=O)Nc2ccc(N3C[C@@H](C)O[C@@H](C)C3)nc2)cccc1-c1ccc(OC(F)(F)F)cc1 [NVP-LDE-225] | 658 | 580 | 685 | 642 | > -5 | > -5 | > -5 | > -5 | -5.16 | 698 | 723 |
| -5.28 | -5.57 | -5.25 | -5.19 | -5.38 | > -5 | -5.44 | -5.4 | -5.09 | Cc1cn(-c2cc(NC(=O)c3ccc(C)c(Nc4nccc(-c5cccnc5)n4)c3)cc(C(F)(F)F)c2)cn1 [Nilotinib] | 458 | 300 | 632 | 633 | -5.59 | > -5 | -5.26 | > -5 | -7.48 | 441 | 650 |
| > -5 | > -5 | > -5 | -5.56 | -5.44 | -6.31 | -5.38 | > -5 | > -5 | C[C@]1(O)C[C@@H](c2nc(-c3ccc4ccc(-c5ccccc5)nc4c3)c3c(N)nccn32)C1 [OSI-906] | 503 | 498 | 481 | 534 | -5.67 | -5.56 | -6.24 | > -5 | -5.74 | 604 | 567 |
| -5.65 | > -5 | -5.32 | > -5 | -5.12 | > -5 | -5.5 | > -5 | -5.34 | O=C(c1cc(Cc2n[nH]c(=O)c3ccccc23)ccc1F)N1CCN(C(=O)C2CC2)CC1 [Olaparib] | 639 | 549 | 657 | 509 | > -5 | -5.1 | > -5 | > -5 | -5.64 | 660 | 647 |

| Structure (SMILES) | IC50 (log10 M) (MV4.11) | IC50 (log10 M) (U937) | IC50 (log10 M) (MOLM/13) | IC50 (log10 M) (SKM1) | IC50 (log10 M) (MOLM/16) | IC50 (log10 M) (HL60 [7]) | IC50 (log10 M) (OCI-AML2 [8]) | IC50 (log10 M) (OCI-AML3) | IC50 (log10 M) (THP-1) | area under dose-response curve (KASUMI1 [1]) | area under dose-response curve (EOL-1 [2]) | area under dose-response curve (HL60 [3]) | area under dose-response curve (OCI-AML2 [4]) | IC50 (log10 M) (KASUMI1 [5]) | IC50 (log10 M) (NB4) | IC50 (log10 M) (PL-21) | IC50 (log10 M) (KG1) | IC50 (log10 M) (EOL-1 [6]) | area under dose-response curve (AML190) | area under dose-response curve (AML223) |
| --- | --- | --- | --- | --- | --- | --- | --- | --- | --- | --- | --- | --- | --- | --- | --- | --- | --- | --- | --- | --- |
| N[C@@H](Cc1ccc(N(CCCl)CCCl)cc1)C(=O)O [Melphalan] | -6.72 | -5.99 | -6.22 | -5.41 | -5.53 | -5.55 | -6.57 | -5.91 | -5.55 | 610 | 456 | 621 | 423 | -5.38 | -6.08 | -5.39 | -5.44 | -6.64 | 562 | 612 |
